Source: patent US20020137929A1, “1 - (3-heterocyclylphenyl) isothiourea, -isourea, -guanidine and -amidine herbicidal agents” (Intellectual Property Department, BASF Aktiengesellschaft, priority 1998, published 2002)

How the values were obtained:
[1] = test system: IPOHE (Morningglory, Ivyleaf); experiment: Preemergence herbicidal evaluation; type: in vivo, Ipomoea hederacea; conditions: rated 4-5 weeks after treatment
In short: (§1)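 Herbicidal effect scored visually, 0-9, at 4 to 5 weeks against a control; compound applied preemergence by aqueous acetone spray to seeded soil at about 0.0156 to 0.500 kg/ha.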

CYPSE (Flatsedge) = experiment: Preemergence weed control under flooded paddy conditions; type: in vivo, Cyperus serotinus; conditions: rated 3-4 weeks after treatment
In short: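 First, seeds or propagules go into the top 0.5 cm of silt loam; next, water is held 1.5 to 3 cm over the soil; then compound (50/50 acetone/water) is pipetted into it at about 0.0313 to 0.500 kg/ha; finally plants are rated visually 0-9 after three to four weeks.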

ZEAMX (Corn, Field) = experiment: Postemergence herbicidal evaluation; type: in vivo, Zea mays; conditions: postemergence
In short: (§2)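 Visual 0-9 injury score (stand, vigor, malformation, size, chlorosis, appearance vs untreated) taken four to five weeks post-spray, averaged across repeat tests. Test plants about two weeks old; foliar spray of acetone/water (1:1) with 0.5% surfactant delivering ~0.0156-0.500 kg active/ha.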

[2] = test system: ECHORC (Watergrass (Calif.)); experiment: Postemergence weed control under flooded paddy conditions; type: in vivo, Echinochloa oryzoides; conditions: postemergence weeds, rated 3 to 4 weeks after treatment
In short: (§3)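 Flood-water application, about 0.0313–0.500 kg/ha a.i. in aqueous/acetone 50/50 v/v; water depth 1.5–3 cm throughout. Weeds 3–5 cm, rice 1.5–2.5 leaf. Greenhouse; 0–9 visual rating vs control at 3–4 wk.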

AMBEL (Ragweed, Common) = experiment: Preemergence herbicidal evaluation; type: in vivo, Ambrosia artemisifolia; conditions: rated 4-5 weeks after treatment
In short: as §1

ABUTH (Velvetleaf) [3] = experiment: Preemergence herbicidal evaluation; type: in vivo, Abutilon theophrasti; conditions: rated 4-5 weeks after treatment
In short: as §1

ECHCG (Barnyardgrass) = experiment: Preemergence herbicidal evaluation; type: in vivo, Echinochloa crus-galli; conditions: rated 4-5 weeks after treatment
In short: as §1

[4] = test system: GLXMAW (Soybean, Williams); experiment: Postemergence herbicidal evaluation; type: in vivo, Glycine max, (L.) Merr. cv Williams; conditions: postemergence
In short: as §2

ABUTH (Velvetleaf) [5] = experiment: Postemergence herbicidal evaluation; type: in vivo, Abutilon theophrasti; conditions: postemergence
In short: as §2

CASOB (Sicklepod) = experiment: Preemergence herbicidal evaluation; type: in vivo, Cassia obtusifolia; conditions: rated 4-5 weeks after treatment
In short: as §1

SETVI (Foxtail, Green) = experiment: Postemergence herbicidal evaluation; type: in vivo, Setaria viridis; conditions: postemergence
In short: as §2

CYPIR (Rice Flatsedge) = experiment: Postemergence weed control under flooded paddy conditions; type: in vivo, Cyperus iria; conditions: postemergence weeds, rated 3 to 4 weeks after treatment
In short: as §3

[6] = test system: ECHORC (Watergrass (Calif.)); experiment: Preemergence weed control under flooded paddy conditions; type: in vivo, Echinochloa oryzoides; conditions: rated 3-4 weeks after treatment
In short: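 Herbicidal effect is scored visually on a 0-9 scale against an untreated control, three to four weeks after compounds are pipetted into the flood water (1.5 to 3 cm deep) over seeds planted in silt loam at 0.5 cm depth. Rates: about 0.0313 to 0.500 kg/ha.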

[7] = test system: IPOHE (Morningglory, Ivyleaf); experiment: Postemergence herbicidal evaluation; type: in vivo, Ipomoea hederacea; conditions: postemergence
In short: as §2

COC(=O)[C@H](Cc1ccccc1)N1C(=O)CS/C1=N/c1cc(-n2c(=O)cc(C(F)(F)F)n(C)c2=O)c(F)cc1Cl [Compound 72, Methyl α-benzyl-2-{{2-chloro-5-[3,6-dihydro-3-methyl-2,6-dioxo-4-(trifluoromethyl)-1(2H)-pyrimidinyl]-4-fluorophenyl]imino}-4-oxo-3-thiazolidineacetate, L-]
Preemergence herbicidal rating IPOHE ([1]; rate 0.0156 kg/ha): 0.0
Preemergence herbicidal rating IPOHE ([1]; rate 0.0313 kg/ha): 0.0
Preemergence herbicidal rating IPOHE ([1]; rate 0.0625 kg/ha): 0.0
Preemergence herbicidal rating IPOHE ([1]; rate 0.1250 kg/ha): 2.0
Preemergence herbicidal rating IPOHE ([1]; rate 0.2500 kg/ha): 7.0
CYPSE herbicidal effect rating (CYPSE (Flatsedge); 0.0313 kg/ha): 0.0
CYPSE herbicidal effect rating (CYPSE (Flatsedge); 0.0625 kg/ha): 0.0
CYPSE herbicidal effect rating (CYPSE (Flatsedge); 0.1250 kg/ha): 9.0
CYPSE herbicidal effect rating (CYPSE (Flatsedge); 0.2500 kg/ha): 9.0
ZEAMX herbicidal rating (ZEAMX (Corn, Field); rate 0.0158 kg/ha): 4.0
ZEAMX herbicidal rating (ZEAMX (Corn, Field); rate 0.0315 kg/ha): 4.5
ZEAMX herbicidal rating (ZEAMX (Corn, Field); rate 0.0630 kg/ha): 6.5
Herbicidal rating ECHORC ([2]; Rate 0.0313 kg/ha): 9.0
Herbicidal rating ECHORC ([2]; Rate 0.0625 kg/ha): 9.0
Herbicidal rating ECHORC ([2]; Rate 0.1250 kg/ha): 9.0
Herbicidal rating ECHORC ([2]; Rate 0.2500 kg/ha): 9.0
Preemergence herbicidal rating AMBEL (AMBEL (Ragweed, Common); rate 0.0156 kg/ha): 0.0
Preemergence herbicidal rating AMBEL (AMBEL (Ragweed, Common); rate 0.0625 kg/ha): 2.0
Preemergence herbicidal rating AMBEL (AMBEL (Ragweed, Common); rate 0.1250 kg/ha): 9.0
Preemergence herbicidal rating AMBEL (AMBEL (Ragweed, Common); rate 0.2500 kg/ha): 9.0
Preemergence herbicidal rating ABUTH (ABUTH (Velvetleaf) [3]; rate 0.0156 kg/ha): 2.0
Preemergence herbicidal rating ABUTH (ABUTH (Velvetleaf) [3]; rate 0.0313 kg/ha): 9.0
Preemergence herbicidal rating ABUTH (ABUTH (Velvetleaf) [3]; rate 0.0625 kg/ha): 9.0
Preemergence herbicidal rating ABUTH (ABUTH (Velvetleaf) [3]; rate 0.1250 kg/ha): 9.0
Preemergence herbicidal rating ABUTH (ABUTH (Velvetleaf) [3]; rate 0.2500 kg/ha): 9.0
Preemergence herbicidal rating ECHCG (ECHCG (Barnyardgrass); rate 0.0156 kg/ha): 0.0
Preemergence herbicidal rating ECHCG (ECHCG (Barnyardgrass); rate 0.0313 kg/ha): 0.0
Preemergence herbicidal rating ECHCG (ECHCG (Barnyardgrass); rate 0.0625 kg/ha): 0.0
Preemergence herbicidal rating ECHCG (ECHCG (Barnyardgrass); rate 0.1250 kg/ha): 0.0
Preemergence herbicidal rating ECHCG (ECHCG (Barnyardgrass); rate 0.2500 kg/ha): 3.0
GLXMAW herbicidal rating ([4]; rate 0.0158 kg/ha): 5.5
GLXMAW herbicidal rating ([4]; rate 0.0315 kg/ha): 5.5
GLXMAW herbicidal rating ([4]; rate 0.0630 kg/ha): 7.0
ABUTH herbicidal rating (ABUTH (Velvetleaf) [5]; rate 0.0158 kg/ha): 9.0
ABUTH herbicidal rating (ABUTH (Velvetleaf) [5]; rate 0.0315 kg/ha): 9.0
ABUTH herbicidal rating (ABUTH (Velvetleaf) [5]; rate 0.0630 kg/ha): 9.0
Preemergence herbicidal rating CASOB (CASOB (Sicklepod); rate 0.0156 kg/ha): 0.0
Preemergence herbicidal rating CASOB (CASOB (Sicklepod); rate 0.0313 kg/ha): 0.0
Preemergence herbicidal rating CASOB (CASOB (Sicklepod); rate 0.0625 kg/ha): 0.0
Preemergence herbicidal rating CASOB (CASOB (Sicklepod); rate 0.1250 kg/ha): 1.0
Preemergence herbicidal rating CASOB (CASOB (Sicklepod); rate 0.2500 kg/ha): 1.0
SETVI herbicidal rating (SETVI (Foxtail, Green); rate 0.0158 kg/ha): 2.0
SETVI herbicidal rating (SETVI (Foxtail, Green); rate 0.0315 kg/ha): 4.0
SETVI herbicidal rating (SETVI (Foxtail, Green); rate 0.0630 kg/ha): 2.0
Herbicidal rating CYPIR (CYPIR (Rice Flatsedge); Rate 0.0313 kg/ha): 6.0
Herbicidal rating CYPIR (CYPIR (Rice Flatsedge); Rate 0.0625 kg/ha): 6.0
Herbicidal rating CYPIR (CYPIR (Rice Flatsedge); Rate 0.1250 kg/ha): 7.0
Herbicidal rating CYPIR (CYPIR (Rice Flatsedge); Rate 0.2500 kg/ha): 9.0
ECHORC herbicidal effect rating ([6]; 0.0313 kg/ha): 9.0
ECHORC herbicidal effect rating ([6]; 0.0625 kg/ha): 9.0
ECHORC herbicidal effect rating ([6]; 0.1250 kg/ha): 9.0
ECHORC herbicidal effect rating ([6]; 0.2500 kg/ha): 9.0
IPOHE herbicidal rating ([7]; rate 0.0158 kg/ha): 9.0
IPOHE herbicidal rating ([7]; rate 0.0315 kg/ha): 7.0
IPOHE herbicidal rating ([7]; rate 0.0630 kg/ha): 9.0

Cn1c(C(F)(F)F)cc(=O)n(-c2cc(N=C3SCC(=O)N3[C@H](Cc3ccccc3)C(=O)O)c(Cl)cc2F)c1=O [Compound 69, α-Benzyl-2-{{2-chloro-5-[3,6-dihydro-3-methyl-2,6-dioxo-4-(trifluoromethyl)-1(2H)-pyrimidinyl]-4-fluorophenyl}imino}-4-oxo-3-thiazolidineacetic acid, D-]
Preemergence herbicidal rating IPOHE ([1]; rate 0.0313 kg/ha): 0.0
Preemergence herbicidal rating IPOHE ([1]; rate 0.0625 kg/ha): 2.0
Preemergence herbicidal rating IPOHE ([1]; rate 0.1250 kg/ha): 1.0
Preemergence herbicidal rating IPOHE ([1]; rate 0.2500 kg/ha): 4.0
CYPSE herbicidal effect rating (CYPSE (Flatsedge); 0.0313 kg/ha): 3.0
CYPSE herbicidal effect rating (CYPSE (Flatsedge); 0.0625 kg/ha): 3.0
CYPSE herbicidal effect rating (CYPSE (Flatsedge); 0.1250 kg/ha): 9.0
CYPSE herbicidal effect rating (CYPSE (Flatsedge); 0.2500 kg/ha): 9.0
ZEAMX herbicidal rating (ZEAMX (Corn, Field); rate 0.0158 kg/ha): 4.5
ZEAMX herbicidal rating (ZEAMX (Corn, Field); rate 0.0315 kg/ha): 4.5
ZEAMX herbicidal rating (ZEAMX (Corn, Field); rate 0.0630 kg/ha): 5.5
Herbicidal rating ECHORC ([2]; Rate 0.0313 kg/ha): 0.0
Herbicidal rating ECHORC ([2]; Rate 0.0625 kg/ha): 4.0
Herbicidal rating ECHORC ([2]; Rate 0.1250 kg/ha): 5.0
Herbicidal rating ECHORC ([2]; Rate 0.2500 kg/ha): 7.0
Preemergence herbicidal rating AMBEL (AMBEL (Ragweed, Common); rate 0.0156 kg/ha): 0.0
Preemergence herbicidal rating AMBEL (AMBEL (Ragweed, Common); rate 0.0313 kg/ha): 4.0
Preemergence herbicidal rating AMBEL (AMBEL (Ragweed, Common); rate 0.0625 kg/ha): 5.0
Preemergence herbicidal rating AMBEL (AMBEL (Ragweed, Common); rate 0.1250 kg/ha): 9.0
Preemergence herbicidal rating AMBEL (AMBEL (Ragweed, Common); rate 0.2500 kg/ha): 7.0
Preemergence herbicidal rating ABUTH (ABUTH (Velvetleaf) [3]; rate 0.0156 kg/ha): 0.0
Preemergence herbicidal rating ABUTH (ABUTH (Velvetleaf) [3]; rate 0.0313 kg/ha): 0.0
Preemergence herbicidal rating ABUTH (ABUTH (Velvetleaf) [3]; rate 0.0625 kg/ha): 9.0
Preemergence herbicidal rating ABUTH (ABUTH (Velvetleaf) [3]; rate 0.1250 kg/ha): 9.0
Preemergence herbicidal rating ABUTH (ABUTH (Velvetleaf) [3]; rate 0.2500 kg/ha): 9.0
Preemergence herbicidal rating ECHCG (ECHCG (Barnyardgrass); rate 0.0156 kg/ha): 0.0
Preemergence herbicidal rating ECHCG (ECHCG (Barnyardgrass); rate 0.0313 kg/ha): 0.0
Preemergence herbicidal rating ECHCG (ECHCG (Barnyardgrass); rate 0.0625 kg/ha): 0.0
Preemergence herbicidal rating ECHCG (ECHCG (Barnyardgrass); rate 0.1250 kg/ha): 1.0
Preemergence herbicidal rating ECHCG (ECHCG (Barnyardgrass); rate 0.2500 kg/ha): 3.0
GLXMAW herbicidal rating ([4]; rate 0.0158 kg/ha): 5.5
GLXMAW herbicidal rating ([4]; rate 0.0315 kg/ha): 6.0
GLXMAW herbicidal rating ([4]; rate 0.0630 kg/ha): 6.0
ABUTH herbicidal rating (ABUTH (Velvetleaf) [5]; rate 0.0158 kg/ha): 9.0
ABUTH herbicidal rating (ABUTH (Velvetleaf) [5]; rate 0.0315 kg/ha): 9.0
ABUTH herbicidal rating (ABUTH (Velvetleaf) [5]; rate 0.0630 kg/ha): 9.0
Preemergence herbicidal rating CASOB (CASOB (Sicklepod); rate 0.0156 kg/ha): 0.0
Preemergence herbicidal rating CASOB (CASOB (Sicklepod); rate 0.0313 kg/ha): 0.0
Preemergence herbicidal rating CASOB (CASOB (Sicklepod); rate 0.0625 kg/ha): 0.0
Preemergence herbicidal rating CASOB (CASOB (Sicklepod); rate 0.1250 kg/ha): 1.0
Preemergence herbicidal rating CASOB (CASOB (Sicklepod); rate 0.2500 kg/ha): 5.0
SETVI herbicidal rating (SETVI (Foxtail, Green); rate 0.0158 kg/ha): 3.0
SETVI herbicidal rating (SETVI (Foxtail, Green); rate 0.0315 kg/ha): 1.0
SETVI herbicidal rating (SETVI (Foxtail, Green); rate 0.0630 kg/ha): 1.0
Herbicidal rating CYPIR (CYPIR (Rice Flatsedge); Rate 0.0313 kg/ha): 3.0
Herbicidal rating CYPIR (CYPIR (Rice Flatsedge); Rate 0.0625 kg/ha): 3.0
Herbicidal rating CYPIR (CYPIR (Rice Flatsedge); Rate 0.1250 kg/ha): 3.0
Herbicidal rating CYPIR (CYPIR (Rice Flatsedge); Rate 0.2500 kg/ha): 3.0
ECHORC herbicidal effect rating ([6]; 0.0313 kg/ha): 0.0
ECHORC herbicidal effect rating ([6]; 0.0625 kg/ha): 4.0
ECHORC herbicidal effect rating ([6]; 0.1250 kg/ha): 5.0
ECHORC herbicidal effect rating ([6]; 0.2500 kg/ha): 7.0
IPOHE herbicidal rating ([7]; rate 0.0158 kg/ha): 9.0
IPOHE herbicidal rating ([7]; rate 0.0315 kg/ha): 9.0
IPOHE herbicidal rating ([7]; rate 0.0630 kg/ha): 9.0
